In paper PMC10403574, “Discovery of a pyrrole-pyridinimidazole derivative as novel SIRT6 inhibitor for sensitizing pancreatic cancer to gemcitabine” (Cell Death & Disease, 2023):

What was measured:
PANC-1 cells = assay: MTT proliferation assay, PANC-1; assay type: cell-based; settings: 72 h
Method: (§1) BXPC-3 and PANC-1 cells were plated in 96-well plates at 5000 cells per well. After 12 h attachment, varying concentrations of 8a were added into the culture medium for 72 h. Then 10 μL MTT (5 mg/ml) solution was added into per well for 4 h at 37 °C. After removing medium, formazan crystals were dissolved in 150 µL DMSO. The cells viability was quantified by measuring the absorbance at 570 nm.

BXPC-3 cells [1] = assay: Western blot of BXPC-3 cells; assay type: cell-based
Method: Cells were harvested and lysed in a lysis buffer (solarbio, R0010) supplementing 1 mM PMSF and protease inhibitor (TargetMol, USA). […] The blocked membrane was incubated with primary antibodies:SIRT6 (1:1000, Cell Signaling Technology, Cat#12486S, RRID:AB_2636969), Histone H3 Antibody (1:1000, Cell Signaling Technology, Cat#9715S, RRID:AB_331563), β-Actin (1:2000, Cell Signaling Technology, Cat#4970S, RRID:AB_2223172), Cleaved caspases-3 (1:1000, Cell Signaling Technology, Cat#9661S, RRID:AB_2341188), Cleaved Caspase-9 (Asp315) (1:1000, Cell Signaling Technology, Cat#20750S,RRID:AB_2798848), Cleaved PARP (1:1000, Cell Signaling Technology, Cat#5625S, RRID:AB_10699459), AKT (1:1000, Cell Signaling Technology, Cat#9272S, RRID:AB_329827), Phospho-AKT (Ser473) (D9E) (1:1000, Cell Signaling Technology, Cat#4060S, RRID:AB_2315049), ERK1/2 (1:1000, Cell Signaling Technology, Cat#4695S, RRID:AB_390779), Phospho-p44/42 MAPK (ERK1/2) (Thr202/Tyr204) (1:1000, Cell Signaling Technology, Cat#4370S, RRID:AB_2315112), Cyclin D1 (E3P5S) (1:1000, Cell Signaling Technology, Cat#55506 S, RRID:AB_2827374), Phospho-mTOR(Ser2448) (1:1000,Cell Signaling Technology, Cat#5536S, RRID:AB_10691552), Phospho-p70S6Kinase (Thr421/Ser424) (1:1000, Cell Signaling Technology, Cat#9204 S, RRID:AB_2265913), Phospho-Histone H2A.X (Ser139) (1:1000, Cell Signaling Technology, Cat#9718S, RRID:AB_2118009) at 4 °C overnight. After being washed with TBST, the membranes were incubated with horseradish peroxidase-conjugated secondary antibodies at room temperature for 1 h. Then, the membranes were detected by Tanon 5200 (Tanon, Beijing, China).

SIRT6 = SIRT6 (Homo sapiens, UniProt Q8N6T7); assay: Cellular thermal shift assay (CETSA) in Hela cells; assay type: cell-based; parameters: endogenous in cells; host or cells: HeLa; settings: 8a 25 μM, 6 h
Method: The CETSA [26] approach builds on the thermal shift assay concept where ligand binding to its target protein affects protein stability at high temperatures. Hela cells were plated in 100 mm plates. After 12 h attachment, Hela cells were incubated with 8a (25 μM) for 6 h, and then the cells were digested with trypsin and collected. The collected cells were subsequently aliquoted into […], and incubated each part at different temperatures (40, 41, 42, 43, 44, 45, 46, 47, 48, 49 and 50 °C) for 3 min. The heated cells were then snap frozen in liquid nitrogen three times to lyse. After that, the lysed cells were then centrifuged at 12,000 rpm for 20 min. Then the level of SIRT6 was detected by western blot.

[2] = system: islet α cells and β cells; assay: Immunofluorescence of pancreatic tissues (islet cell composition); assay type: in vivo; settings: mice, 8a 20 mg/kg, 2 weeks
Method: Male C57BL/6 mice (18 ± 2 g, 5 weeks old) were randomly divided into four groups with six mice per group. Acute drug toxicity test was performed. Mice were fasted for 6 h, and basal blood glucose and serum insulin levels were measured by using Accu-Check Performa (Roche, Swiss) glucose meter and Mouse Insulin ELISA kit (Solarbio). Compound 8a (10, 20, 30 mg/kg) was intraperitoneally injected for 10 min, followed by glucose (2 g/kg) intraperitoneally injected. The blood glucose concentration was measured at 30 and 60 min after glucose injection, and the serum insulin content of mice was measured at 60 min. Compound 8a was treated every other day for 2 weeks and tested for chronic drug toxicity. According to the above method, the serum glucose and insulin content of mice were measured.
Pancreatic tissue sections were incubated with primary antibodies overnight at 4 °C. The primary antibodies were as follows: anti-Glucagon (Cell Signaling Technology, Cat#2760), anti-insulin (Cell Signaling Technology, Cat#3014). The sections were stained with secondary antibodies (Alexa Fluor 488-conjugated anti-rabbit IgG, Abcam, Cat#ab150077) for 2 h at 4 °C in dark. After washing with PBS, the sections were stained with DAPI and observed by confocal microscopy (Leica TCS SP8 STED 3X).

BXPC-3 cells [3] = assay: MTT proliferation assay, BXPC-3; assay type: cell-based; settings: 72 h
Method: as §1

Chain of SIRT6 (Q8N6T7 whole entry): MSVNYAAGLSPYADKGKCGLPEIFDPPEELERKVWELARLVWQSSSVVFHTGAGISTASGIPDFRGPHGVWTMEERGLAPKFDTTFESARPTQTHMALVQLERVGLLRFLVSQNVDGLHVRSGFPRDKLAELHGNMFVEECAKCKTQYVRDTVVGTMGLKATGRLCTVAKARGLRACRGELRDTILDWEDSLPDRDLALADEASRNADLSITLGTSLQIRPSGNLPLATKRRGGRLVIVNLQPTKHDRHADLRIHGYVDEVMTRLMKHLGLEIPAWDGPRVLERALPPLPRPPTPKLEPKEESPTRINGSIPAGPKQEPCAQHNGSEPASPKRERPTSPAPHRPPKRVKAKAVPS

Question: For Br.CN(C)C(SCCCCCCn1cnc2c(-c3cc(Br)c(Br)[nH]3)nccc21)=[N+](C)C.[Cl-] [Compound 8a], which IC50 (PANC-1 cells) is on record?
Answer: The IC50 was 9.28 µM.

Question: And the “cyclin D1 expression” value (BXPC-3 cells [1]; BXPC-3, 48 h, dose-dependent)?
Answer: Its value is “decreased”.

Question: And the “expression of cleaved-PARP, cleaved-Caspase3, and cleaved-Caspase9” value (BXPC-3 cells [1]; BXPC-3, western blot)?
Answer: Its value is “significantly up-regulated”.

Question: And the “p-mTOR, p-P70S6K, p-AKT, and p-ERK” value (BXPC-3 cells [1]; BXPC-3, western blot)?
Answer: The value was “significantly down-regulated”.

Question: What about the “acetylation level of H3K9” value (BXPC-3 cells [1]; BXPC-3 cells, western blot, dose-dependent) of the same compound?
Answer: Its value is “increased”.

Question: And the “thermal stability of SIRT6” value (SIRT6)?
Answer: Its value is “increased”.

Question: What about the “number of α cells and β cells in the islets” value [2] of the same compound?
Answer: Its value is “no significant difference”.

Question: What about the IC50 (BXPC-3 cells [3]) of the same compound?
Answer: The IC50 was 7.56 µM.
